Converted amounts (≈) assume the structure as drawn.
Columns and labels:
[1] = test system: forgetfulness animal models using scopolamine; experiment: Y-maze test; format: in vivo
Experimental: A test was conducted to investigate the improvement efficacy of cognitive ability and memory of the desalted Salicornia europaea extract (PM-EE) obtained in example 4-1 above and acanthoside B as an AChE inhibitory and neuroinflammation inhibiting substance isolated from PM-EE in examples 4-2 and 4-3. The Y-maze test was conducted in forgetfulness animal models using scopolamine. In the present test, PM-EE and acanthoside B were dissolved in 10% Tween 80, and then the mixture was orally administered at different concentrations (PM-EE and acanthoside B). […] For the Y-maze test, a test animal was carefully placed in a test apparatus composed of three arms (A, B, C) of a black polyvinyl plastic, each of the arms being 50 cm in length, 10 cm in width, and 20 cm in height, and the folding angle of the three arms being 120 degrees, and the test animal was allowed to freely move for 8 minutes, and then the number of arm entries was recorded. If the test animal sequentially entered the three different arms, 1 point (actual alternation) was given. The alternation behavior was calculated by the following formula. Alternation behavior=(actual alternation)/(maximum alternation)×100 (maximum alternation: the total number of arm entries−2)

[2] = target: acetylcholine esterase (AChE) (Homo sapiens, UniProt P22303); experiment: Acetylcholine esterase inhibitory activity (partially corrected Ellman's coupled enzyme assay); format: biochemical
From the text: It has been reported that as the concentration of acetylcholine esterase (AChE) increases in the cerebral blood vessels, cholinergic neurotransmitters for neurons are deficient in neurons, causing memory and cognitive impairment. Therefore, the measurement of AChE inhibitory activity can be used as a tool for the development of a drug or health functional raw material for prevention and treatment of dementia or enhancement of cognitive ability. In the present invention, the AChE inhibitory activity of a desalted Salicornia europaea extract, a desalted Salicornia europaea enzymatic hydrolysis extract, or purified fractions obtained from a desalted Salicornia europaea extract were measured, and the measurement was conducted by partially correcting Ellman's coupled enzyme assay. That is, 170 μL of 100 mM phosphate buffer (pH 8), […] of 2 mM dithiobisnitrobenzoic acid (DTNB), and 20 μL of an extraction sample were added to on a 96-well microplate. […] The enzymatic reaction solution was incubated at 37° C. for 10 minutes, and then the absorbance was measured by a UV-VIS microreader at 410 nm. The AChE inhibitory activity was calculated as below by comparison between the absorbance (Ac) of a control group not containing a substrate and a sample and the absorbance (As) of a test group. *AChE inhibitory activity (%)=[1−(As/Ac)]×100 • Ac: absorbance of a control group, • As: absorbance of a sample group.

[3] = test system: LPS-stimulated mouse BV-2 microglia; experiment: LPS-induced nitric oxide (NO) production, NO assay using Griess reagent; format: cell-based; details: 1, 5, 100 μg/mL as printed; LPS 200 ng/ml (FIG. 10b)
Experimental: (§1) A test was conducted to investigate effects of the neuroinflammation inducing substance LPS (200 mg/mL) and the active ingredient acanthoside B of PM-EE on brain glia cells in LPS-stimulated brain glia cells BV2 microglia. The cells were treated with each material at different concentrations (1, 5, 10 μg/mL), and a cytotoxicity test was conducted through MTT analysis. […] Therefore, in order to analyze the neuroinflammation inhibitory ability of acanthoside B at concentrations (1, 5, 100 μg/mL) without cytotoxicity, as for whether the nitric oxide (NO) produced in LPS (200 ng/ml)-stimulated mouse BV-2 microglia was inhibited by acanthoside B, the content of intracellular LPS-induced nitric oxide (NO) was measured through NO assay using Griess reagent.

[4] = test system: iNOS and COX-2 protein in LPS-stimulated BV2 microglia; experiment: Neuroinflammation factor protein expression by western blotting; format: cell-based, mouse; details: acanthoside B; LPS-induced (FIG. 10c)
Experimental: as §1

[5] = test system: neuroinflammation-related genes (IL-1β, iNOS, COX-2, and TNF-α) in BV2 microglia; experiment: Neuroinflammation gene expression by RT-PCR; format: cell-based, mouse
Experimental: BV2 microglia as neuroglia were treated with LPS and the desalted Salicornia europaea extract (PM-EE) at different concentrations (0-100 μg/mL). After 1 hour, cells were stimulated by LPS, and after 3 hours, an RNA sample was isolated by an RNA extraction buffer. Thereafter, RT-PCR assay was conducted through RNA purification procedure. […] RNA isolated from BV2 microglia was subjected to denaturation at 95° C. for […], 45 times of chain reactions in conditions of 95° C. for 5 seconds and 60° C. for 20 seconds, and annealing to 95° C. at 0.2° C./15 sec, using the primers in Table 4, and then the reaction was stopped. Last, separation by bp size was conducted through agarose gel electrophoresis. Then, bands were checked under UV, and fluorescence was imaged by a camera. As shown in the results in FIG. 9, the expressions of neuroinflammation-related genes (IL-1β, iNOS, COX-2, and TNF-α) were not or slightly observed in a control group treated without LPS.
A test was conducted to investigate an effect of acanthoside B on neuroinflammation factor gene expression. […] After 3 hours, RNA sample was separated by RNA extraction buffer to synthesize cDNA, and RT-PCR was conducted by the same method as in example 6 using the primers in Table 4. […]

[6] = test system: forgetfulness animal models using scopolamine; experiment: Passive avoidance test; format: in vivo, mice
Experimental: Mice were placed in the bright section with shining light and allowed to go over for 20 seconds. Subsequently, the guillotine door was opened and the mouse was allowed to enter into the dark section. […] The time from when the guillotine door was opened to when the mouse entered the dark section was measured. Once the mouse entered the dark section, the guillotine door was closed, and an electric shock of 0.25 mA flows through a grid bottom for 3 seconds, and the mouse remembered this electrical action. The present test was conducted 24 hours after the learning test. […] Here, the longer the time taken, the better the cognitive ability and memory in passive avoidance.

[7] = Solubility (physical and chemical properties); format: physicochemical
From the text: As a result of the measurement above, the compound S7-L3-3 was identified to be acanthoside B ((2S,3R,4S,5S,6R)-2-[4-[(3S,3aR,6S,6aR)-3-(4-hydroxy-3,5-dimethoxyphenyl)-1,3,3a,4,6,6a-hexahydrofuro [3,4-c]furan-6-yl]-2,6-dimethoxyphenoxy]-6-(hydroxymethyl)oxane-3,4,5-triol) having a molecular weight of 580, which has not been reported in Salicornia europaea until now, and the physical and chemical properties thereof are as follows.

BV2 microglia = experiment: Cytotoxicity test through MTT assay in LPS-stimulated BV2 microglia; details: acanthoside B 1, 5, 10 μg/mL, alone or together with LPS (FIG. 10a)
Experimental: as §1

acetylcholine esterase (AChE), sequence (P22303 32-614): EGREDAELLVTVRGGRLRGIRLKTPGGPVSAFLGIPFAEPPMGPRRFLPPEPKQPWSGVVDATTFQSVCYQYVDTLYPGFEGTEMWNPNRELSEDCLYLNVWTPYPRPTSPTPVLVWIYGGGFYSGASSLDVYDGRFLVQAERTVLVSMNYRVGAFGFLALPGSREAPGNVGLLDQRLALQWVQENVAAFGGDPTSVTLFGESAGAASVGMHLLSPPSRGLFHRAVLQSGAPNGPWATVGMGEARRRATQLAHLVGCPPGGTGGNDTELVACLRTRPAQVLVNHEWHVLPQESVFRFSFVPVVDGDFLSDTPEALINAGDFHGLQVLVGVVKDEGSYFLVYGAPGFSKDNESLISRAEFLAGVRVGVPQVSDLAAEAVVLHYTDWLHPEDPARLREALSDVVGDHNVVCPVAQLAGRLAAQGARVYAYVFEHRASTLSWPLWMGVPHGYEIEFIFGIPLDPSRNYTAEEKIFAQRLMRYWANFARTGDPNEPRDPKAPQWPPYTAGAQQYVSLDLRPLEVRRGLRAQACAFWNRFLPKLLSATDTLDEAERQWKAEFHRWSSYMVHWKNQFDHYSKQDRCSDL

CN1[C@@H]2C[C@@H](OC(=O)[C@H](CO)c3ccccc3)C[C@H]1[C@@H]1O[C@@H]12 [scopolamine, reference compound]
Alternation behavior after administration of scopolamine ([1]; normal control group scored 50 points): 45.5 points

COc1cc([C@H]2OC[C@@H]3[C@@H]2CO[C@H]3c2cc(OC)c(O[C@@H]3O[C@H](CO)[C@@H](O)[C@H](O)[C@H]3O)c(OC)c2)cc(OC)c1O[C@@H]1O[C@H](CO)[C@@H](O)[C@H](O)[C@H]1O [Elutheroside E, eleutheroside E, reference compound]
IC50 (AChE inhibitory activity) [2]: 8.2 ± 0.37 µg/mL (≈ 11 µM)

COc1cc([C@H]2OC[C@H]3[C@@H]2CO[C@@H]3c2cc(OC)c(O[C@@H]3O[C@H](CO)[C@@H](O)[C@H](O)[C@H]3O)c(OC)c2)cc(OC)c1O [acanthoside B, (2S,3R,4S,5S,6R)-2-[4-[(3S,3aR,6S,6aR)-3-(4-hydroxy-3,5-dimethoxyphenyl)-1,3,3a,4,6,6a-hexahydrofuro [3,4-c]furan-6-yl]-2,6-dimethoxyphenoxy]-6-(hydroxymethyl)oxane-3,4,5-triol]
IC50 ([2]; IC50 (AChE inhibitory activity)): 4.82 µM | inhibition at 10 µg/mL ([2]; read-out: AChE inhibitory activity): 93.2% | LPS-induced amplified intracellular nitric oxide (NO) [3]: remarkably decreased dependently on the treatment concentration | Expressions of iNOS and COX-2 protein (western blotting) [4]: remarkably inhibited | LPS-induced amplified neuroinflammation-related genes (IL-1β, iNOS, COX-2, TNF-α) at high concentration ([5]; 10 μg/mL (FIG. 11)): restored to almost the same level as that of a control group before LPS induction | mRNA expression pattern of IL-1β, iNOS, COX-2, and TNF-α (RT-PCR) ([5]; 1, 5, 10 μg/mL, LPS-stimulated (FIG. 11)): reduced dose-dependently | Cognitive ability and memory improvement compared with galantamine (passive avoidance) ([6]; administration at high concentrations): more superior cognitive ability and memory improvement effects compared with the dementia drug, galantamine | Transfer latency time (TLT: retention time) ([6]; scopolamine 1 mg/kg intraperitoneally, different concentrations of sample (FIG. 12a, 12b)): significantly increased | Cognitive ability and memory improvement compared with galantamine (Y-maze) ([1]; galantamine 10 mg/kg as positive control): superior cognitive ability and memory improvement effects to galantamine | Alternation behavior (spatial cognitive ability) ([1]; orally administered at different concentrations in 10% Tween 80, scopolamine model (FIG. 13a, 13b)): restored dose-dependently | Solubility [7]: soluble in methanol, ethanol, ethyl acetate, ethyl acetate, chloroform, or pyridine | Cell viability (MTT) (BV2 microglia): not significantly changed

From US10822367B2, “Pharmaceutical composition for preventing or treating dementia and improving cognitive function, comprising glasswort extract” (priority 2017, dated 2020)
